One experiment has as its system C57BL/6 mouse pups. As to the kind of experiment: In vivo (mouse) dysbiosis model of chronic lung disease, LPS-treated pups.
The test system of another experiment is RSB13. The experiment in a line: Culture growth of probiotic strain RSB13 with herbal extracts or Vitamin D. In kind it is cell-based, Lactobacillus rhamnosus. As to conditions: number of colonies per plate.
The subject of a further experiment is RSB11. As to the kind of experiment: Culture growth of probiotic strain RSB11 with herbal extracts or Vitamin D. Conditions: number of colonies per plate. It is filed as cell-based, Lactobacillus plantarum.
For the next experiment, the system named is RSB12. The experiment in a line: Culture growth of probiotic strain RSB12 with herbal extracts or Vitamin D. It is filed as cell-based, Lactobacillus acidophilus. Conditions: number of colonies per plate.
Experiment [1] has as its system newborn wild type C57BL/6 mice. The experiment in a line: Loss of function of Ac-PGP by RTR treatment in LPS-treated newborn mice. It is filed as in vivo, mouse. As to conditions: under noxious stimuli, LPS+RTR compared to LPS alone, P<0.05. From the text: FIG. 9A illustrates that newborn wild type C57BL/6 mice were randomized to treatment with RTR, LPS, and RTR+LPS as well as normoxia and noxious stimuli.

In another experiment the test system is mice. As to conditions: normoxia and under noxious stimuli, P<0.05.
The mark [2] stands for this setting: LPS-treated mice compared to controls, P<0.05.

As to lipopolysaccharide [LPS], in the experiment with C57BL/6 mouse pups (LPS-treated C57BL/6 mouse pups), the lung tissue histology result is “alveolar hypoplasia and simplification”. For the same substance, in the experiment on C57BL/6 mouse pups (setting [2]), the “myeloperoxidase (MPO) levels in BALF” value is reported as “significantly increased”, the “neutrophil elastase (NE) levels in BALF” value is reported as “significantly increased” and the “radial alveolar counts (RAC)” value is given as “significantly decreased”. For the same substance, in the experiment with C57BL/6 mouse pups (LPS-treated mice compared to controls, by HPLC, P<0.05), the “Ac-PGP levels in BALF” value is recorded as “significantly increased”.

For Vitamin D, the “culture growth of RSB13” value in the experiment with RSB13 is “do not have an inhibitory effect”. In addition, the “culture growth of RSB11” value in the experiment with RSB11 was “do not have an inhibitory effect”. For the same substance, the “culture growth of RSB12” value in the experiment on RSB12 was “do not have an inhibitory effect”.

arginine-threonine-arginine [RTR]: in experiment [1], the MPO concentrations entry is recorded as “significantly lower”, the RAC entry is given as “significantly higher” and the RVH result is “significantly less severe”.

For “N-acetyl-Proline-Glycine-Proline [Ac-PGP]”, in the experiment with mice (ELISA), the MPO concentration entry is recorded as “increased”. For the same substance, in the experiment on mice, the “NE concentrations in BALF” value is on record as “increased”, the RAC counts result is “decreased” and the “right ventricular hypertrophy (RVH)” value is on record as “increased”.

For the origin of these results see patent publication US20240316129A1, “Bacteria and Herbal Extract Nutraceutical Blends for Lung Health Maintenance” (The UAB Research Foundation, priority 2021, published 2024).
